Measured values taken from ChEMBL document CHEMBL2074395, “NF-kappaB-mediated induction of mdr1b expression by insulin in rat hepatoma cells” (J Biol Chem, 1997).

Target: ATP-dependent translocase ABCB1 (Rattus norvegicus, UniProt P43245)
Test: TP_TRANSPORTER: RNase protection assay in H-4-II-E cells
Type: functional, cell-based

Sequence of ATP-dependent translocase ABCB1 (P43245 whole entry): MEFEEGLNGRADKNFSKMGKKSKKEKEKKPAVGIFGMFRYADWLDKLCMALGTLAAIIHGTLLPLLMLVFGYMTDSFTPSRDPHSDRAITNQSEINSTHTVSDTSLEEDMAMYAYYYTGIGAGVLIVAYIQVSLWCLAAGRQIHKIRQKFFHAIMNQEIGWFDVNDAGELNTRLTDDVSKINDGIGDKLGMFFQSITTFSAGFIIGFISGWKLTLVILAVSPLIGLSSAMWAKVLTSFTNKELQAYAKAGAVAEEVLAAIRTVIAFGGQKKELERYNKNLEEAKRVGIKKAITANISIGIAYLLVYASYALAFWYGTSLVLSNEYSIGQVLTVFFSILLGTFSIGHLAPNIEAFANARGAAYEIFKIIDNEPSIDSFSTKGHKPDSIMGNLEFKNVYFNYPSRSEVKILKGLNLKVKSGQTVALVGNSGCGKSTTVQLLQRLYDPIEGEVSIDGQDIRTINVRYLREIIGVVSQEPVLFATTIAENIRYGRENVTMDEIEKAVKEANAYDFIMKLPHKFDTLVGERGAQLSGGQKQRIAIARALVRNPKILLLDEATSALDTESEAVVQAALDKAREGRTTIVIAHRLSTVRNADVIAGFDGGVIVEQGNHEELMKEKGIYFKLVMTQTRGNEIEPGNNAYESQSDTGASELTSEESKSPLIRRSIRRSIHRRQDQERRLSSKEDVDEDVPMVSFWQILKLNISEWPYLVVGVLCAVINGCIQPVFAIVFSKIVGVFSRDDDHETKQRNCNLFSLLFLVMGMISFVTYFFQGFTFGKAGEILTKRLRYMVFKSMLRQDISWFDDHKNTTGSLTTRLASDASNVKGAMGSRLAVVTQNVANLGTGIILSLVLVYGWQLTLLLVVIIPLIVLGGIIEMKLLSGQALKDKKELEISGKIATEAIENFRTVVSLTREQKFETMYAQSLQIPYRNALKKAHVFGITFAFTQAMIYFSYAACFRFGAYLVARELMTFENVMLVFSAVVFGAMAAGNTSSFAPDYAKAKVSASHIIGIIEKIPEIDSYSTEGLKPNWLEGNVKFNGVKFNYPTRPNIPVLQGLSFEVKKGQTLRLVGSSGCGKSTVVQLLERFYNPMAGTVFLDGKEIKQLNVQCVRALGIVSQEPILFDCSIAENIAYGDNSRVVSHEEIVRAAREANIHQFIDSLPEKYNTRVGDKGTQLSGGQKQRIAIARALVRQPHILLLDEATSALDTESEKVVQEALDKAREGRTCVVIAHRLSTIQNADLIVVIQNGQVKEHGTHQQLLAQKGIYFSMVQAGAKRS

- Activity: inducer [+]
Substance: INSULIN HUMAN
